Test results as given in US12019083B2, “Compound distribution in microfluidic devices” (EMULATE, Inc., priority 2019, dated 2024).
Entries after “also recorded” stand apart in the source; their conditions may differ.

Columns and labels:
[1] = Time-dependent material absorption test in vials, PDMS; assay type: physicochemical; settings: for absorption into PDMS: recovered concentration compared to dosing concentration
Description: (§1) A method for ascertaining the absorption of a specific small-molecule into a polymer was developed. The output of this method are the fundamental parameters that fully define the absorption of a specific compound into the material tested; specifically, the diffusivity and partition coefficient are ascertained. […] The steps for ascertaining this absorption is as follows: • 1. Dissolve the small molecule in an aqueous phase (medium) and incubate the solution (30) with the tested material (31), such as in a vial (29). The incubation should be long enough so that diffusion is not limiting absorption and the transport into the material is at equilibrium with the transport of the compound out of the material and into the aqueous phase. • 2. Sample media from the vials at a number of time points. • 3. Measure the concentration of the small molecule remaining in the aqueous phase (30) using a mass spectrometer, plate reader, etc. from the media sampled. • 4. Curve-fit the measured data to quantify the absorption and diffusion parameters.
(§2) Each experiment includes a number of controls and test conditions. Using multiple controls and test conditions allows absorption to the vial and well-plate to be characterized, as well as absorption versus adsorption to the tested material, as well as yielding the time-dependent nature of absorption into the material. […] The goals of the experiments are to directly quantify partitioning of the compound, or compound loss at equilibrium (kinetics), and to directly quantify diffusion of the compound, or time-dependent compound loss (dynamics).
(§3) Single time point experiments are only capable of extracting kinetics, not dynamics. Time-dependent studies capture not only equilibrium endpoints (K), but also time-dependent changes/dynamics (D). One-dimensional computational models are used to fit experimental results of time-dependent studies. […] Once the particular curve is known, the parameters which defined that curve are taken as the fundamental parameters defining the material-compound absorptive interaction.

[2] = Time-dependent material absorption test in vials, SEBS; assay type: physicochemical; settings: for absorption into SEBS: recovered concentration compared to dosing concentration
Description: as §1, §2, §3

[3] = recovered concentration compared to dosing concentration
Source text: Curve-fit the measured data to quantify the absorption and diffusion parameters.

[4] = Flow absorption study in PDMS microfluidic device / compound distribution kit; assay type: physicochemical
Source text: An exemplary method may follow the method of an intended experiment or study. As an example, the compound distribution kit may be used with microfluidic devices. An exemplary method for use with microfluidic devices may follow an intended study method with the following changes: no coatings, no cell seeding, and reduced number of compound doses. In one embodiment, there may not be a need to perform coatings on the microfluidic device that are related to biological aspects of the experiment. Some coatings, such as those that change the chemistry of the microfluidic device material makeup, may need to be done, especially if they may affect compound absorbency. It one embodiment, coatings are done with the compound distribution kit at the discretion of the user. In one embodiment, cell seeding is not needed. In one embodiment, if the intended-study protocol compares several concentrations of a test compound, the absorption control experiment need only be run for one of these concentrations. In one embodiment, it is recommended to use the highest compound concentration planned for the intended study, in order to maximize quantification (e.g. LCMS) sensitivity. However, a lower concentration of test compound may be selected if there are concerns about the compound's solubility limits or it crashing out of solution at the higher concentration. Crashing out of solution is when the concentration of a solute in a solution reaches a point where the solute precipitates. In one embodiment, the compound is dosed for the same duration, at the same flow rate, in the same microfluidic channel(s) as per the intended protocol, experiment or study. That is, if the intended study specifies dosing only in a first channel, with no compound in a second channel, then the same method would be applied during the use of the compound distribution kit. In one embodiment, media and solution should be the same during use of the compound distribution kit as in the intended study. In one embodiment, the same media or solution, as well as any additives or supplements, as medium composition and additives can interact with test compounds (e.g. protein binding). In one embodiment, media or solutions should also be equilibrated in the same manner, such as degassing and preheating. In one embodiment, effluent samples taken during use of the compound distribution kit should be collected at the same time as the intended study. Compound distribution can be a highly dynamic process, and as such matching time points may be able to ensure that the results of the compound distribution kit correspond closely to the intended study. […]

[5] = First round absorption study on Parylene coated SEBS and PDMS gaskets (plate reader); assay type: physicochemical; settings: coating thickness 2 μm and 8 μm; exposure 0, 14, 40 and 72 hours
Source text: Two quantitative studies were run on Parylene coated materials in order to assess its effectiveness in minimizing small molecule absorbency. In the first study Parylene coated SEBS and Parylene coated PDMS were both exposed to Rhodamine B and Coumarin. In the second study the absorption of Parylene coated SEBS and Parylene coated E140 were compared to the absorption of known low-absorbing materials, such as glass and COP.
In the first round of absorption studies, SEBS and PDMS gaskets were coated with Parylene at two thicknesses: 2 μm and 8 μm. Parylene-coated gaskets were exposed to Rhodamine B and Coumarin for 0, 14, 40 and 72 hours. The remaining concentration of Rhodamine B and Coumarin in the exposure solution were measured on a plate reader. Each condition was tested on two gaskets. Limited replicates were available due to the number of conditions run. This “shotgun approach” was used in order to try many coating conditions and quickly determine the best options. […] FIG. 33B depicts the fraction of Rhodamine B recovered from the solutions for coatings of varying thickness on two materials known to absorb. […] One observation from the experiment was that the Parylene may crack, leading to gasket absorption. Another observation from the experiment was that Parylene adhesion to the PDMS and SEBS was poor, resulting in easy removal of Parylene. […]

[6] = Second round absorption study: Parylene coated SEBS and E140 compared with glass, COP and control solution; assay type: physicochemical
Source text: Two quantitative studies were run on Parylene coated materials in order to assess its effectiveness in minimizing small molecule absorbency. In the first study Parylene coated SEBS and Parylene coated PDMS were both exposed to Rhodamine B and Coumarin. In the second study the absorption of Parylene coated SEBS and Parylene coated […] were compared to the absorption of known low-absorbing materials, such as glass and COP. In the second round of absorption studies, after parylene-coating process optimization, the absorption of Parylene coated SEBS and Parylene coated […] were compared to both the absorption of known low-absorbing materials, such as glass and COP, and a control solution of the drug not in contact with a material. The coated materials were exposed to a solution carrying a known concentration of the drug, Coumarin. The solution was tested three times to quantify the remaining concentration of the Coumarin, before exposure to the material, at 22 hours and at 92 hours. […] SEBS absorbed more of the compound than […].

[7] = Flow study of microfluidic device in fluidic communication with perfusion manifold assembly; assay type: physicochemical
Source text: FIGS. 98A and 98B show a comparison between a computational (COMSOL) model results and actual experimental results for cellular exposure ranges of the small-molecule compound Coumarin. […] For this experiment the microfluidic device was in fluidic communication with a perfusion manifold assembly. […] FIGS. 99A and 99B show a comparison between a computational (COMSOL) model results and actual experimental results for cellular exposure ranges of the small-molecule compound Coumarin. […] For this experiment the microfluidic device was in fluidic communication with a perfusion manifold assembly.

[8] = Fluorescent imaging of Parylene-coated gaskets exposed to Rhodamine B; assay type: physicochemical
Source text: Parylene-coated PDMS gaskets were exposed to the fluorescent molecule Rhodamine B and fluorescently imaged. […] However, the absorption is primarily localized to areas with sharp corners. […] Parylene-coated SEBS gaskets were exposed to the fluorescent molecule Rhodamine B and fluorescently imaged as well. […] However, the absorption is primarily localized to areas with sharp corners. Some absorption can be seen inside of the via, but it was minimal, difficult to visualize, and quite possibly an optical artifact unrelated to absorption.

[9] = Fluorescent molecule absorption in perfusion manifold assemblies under flow; assay type: physicochemical; settings: 30 μL/hr for 38 hours
Description: Fluorescent molecule Rhodamine B (a fluorescent molecule that is also moderately absorbing into PDMS and SEBS) was dissolved in a buffer, flowed through a perfusion manifold assembly (14) and absorbing microfluidic device (12) fabricated out of PDMS at 30 μL/hr for 38 hours on a culture module. The perfusion manifold assemblies (14) were rinsed with buffer not containing the fluorescent molecule at 200 μL/hr for an hour before the start of the experiment.
Following the experiment, the perfusion manifold assemblies (14) were disassembled and the vias (35) of the capping, gasketing and backplane assembly or fluidic layer assembly (34), as well as the perfusion manifold assembly (14) resistors (27), were imaged with fluorescent microscopy. FIG. 25A depicts the resulting fluorescence in the fluidic layer assembly (34) of an absorbing perfusion manifold assembly (14) comprising a combined gasketing and capping layer (26). FIG. 25B depicts the resulting fluorescence on one aspect the invention described herein, a low-absorbing perfusion manifold assembly comprising both a low-absorbing capping and low-absorbing gasketing layer. In the embodiment of the perfusion manifold assembly (14) used in the experiment, the capping layer was fabricated from COP and the gasketing layer was fabricated out of SEBS coated with Parylene. Bright white colors in FIGS. 25A and 25B correlate to greater degree of absorption of the fluorescent molecule Rhodamine B.

[10] = tested before exposure, at 22 hours and at 92 hours

CCc1cccc2cc(C(O)CNC(C)(C)C)oc12 (stereo not shown) [Bufuralol]
PDMS partition value (K) [1]: greater than 216 | recovered concentration from the PDMS experiments ([1]; LCMS): below the lower limit of detection | absorption into PDMS [1]: absorbed almost entirely | SEBS partition value (K) [2]: 4.77 | absorption into SEBS [2]: absorbed somewhat | absorption into glass, polypropylene, polystyrene or COP [3]: did not absorb significantly

C=C(C)[C@@H]1CCC(C)=C[C@H]1c1c(O)cc(CCCCC)cc1O [CBD, cannabidiol]
measured outlet concentrations of the compound ([4]; microfluidic device fabricated entirely from PDMS): 0 | absorption or loss of compound in microfluidic device fabricated from entirely PDMS ([4]; several flow rates, even at the highest flow rate): complete/total absorption or loss of compound

O=c1ccc2ccccc2o1 [Coumarin]
absorption by Parylene coated PDMS and SEBS [5]: some Coumarin was absorbed | absorption into materials coated with Parylene ([6]; Parylene coated SEBS and E140, 22 and 92 hours): do not absorb significant amounts | absorption into glass and COP compared to control solution [6, 10]: did not absorb | absorption into uncoated SEBS and E140 [6, 10]: both absorb; also recorded: SEBS absorbed more of the compound than E140 | effect of flow rate on absorption into PDMS ([4]; 60 μL/hr versus 150 μL/hr, bottom channel sampled): less compound is absorbed into PDMS at faster flow rates | absorption into SEBS of the perfusion manifold assembly [7]: especially susceptible to absorption

CN1C(=O)CN=C(c2ccccc2)c2cc(Cl)ccc21 [Diazepam]
fraction of Diazepam absorbed by PDMS ([1]; by hour 12 of contact with PDMS): ⅔ and two thirds

Cc1ncc2n1-c1ccc(Cl)cc1C(c1ccccc1F)=NC2 [Midazolam]
PDMS partition value (K) [1]: 201 | absorption into PDMS [1]: absorbed significantly | SEBS partition value (K) [2]: 4.05 | absorption into SEBS [2]: absorbed somewhat | absorption into glass, polypropylene, polystyrene or COP [3]: did not absorb significantly

CCN(CC)c1ccc2c(-c3ccccc3C(=O)O)c3ccc(=[N+](CC)CC)cc-3oc2c1 [Rhodamine B]
absorption by Parylene coated PDMS and SEBS [5]: minimal Rhodamine B was absorbed | absorption in Parylene-coated SEBS gaskets (microscopy) [8]: some minimal absorption is present | absorption within the microfluidic device ports of Parylene-coated PDMS gaskets ([8]; ports leading into the channels): No absorption was seen | absorption in Parylene-coated PDMS gaskets (microscopy) ([8]; whole gasket): some absorption is present but localized to areas that might not have been fully coated | absorption in perfusion manifold assemblies with COP capping layer and Parylene coated SEBS gasketing layer [9]: did not absorb a significant amount | absorption in perfusion manifold assembly with COP capping layer and non-coated SEBS gasketing layer [9]: absorbed the fluorescent molecule | absorption in perfusion manifold assembly with combined gasketing and capping layer [9]: absorbed the fluorescent molecule | absorption in resistors capped with COP [9]: very little | absorption in resistors capped with SEBS [9]: relatively high extent | rate and extent of absorption ([4]; flow study outlet concentrations): lower rate of absorption, but higher extent of absorption

CN(C)CCC=C1c2ccccc2CCc2ccccc21 [amitriptyline]
absorption into PDMS [1]: absorb into PDMS
